The structures appear in SMILES notation. Where a name gives a salt, the structure may show the parent alone.

The assay deals with Full-length inactive AKT1 (Homo sapiens, UniProt P31749). In words: Inactive Akt Alpha Screen Assay. The format is biochemical. The following applies: values not marked with "*": AlphaScreen assay; read-out: Akt1 IC50, (AlphaScreen). The protocol: AKT1 activity was assayed using the GSK3-derived biotinylated peptide substrate, crosstide (biotin-[…]), and AlphaScreen™ (Amplified Luminescent Proximity Homogeneous Assay) technology. AKT1 activation was achieved by the addition of the activating kinases PDK1 and MAPKAPK2, lipid vesicles, and ATP. The extent of peptide phosphorylation was determined using a phospho-AKT substrate antibody and acceptor beads conjugated to Protein A and donor beads conjugated to streptavidin that bind to the biotin on the peptide. Excitation of the donor beads converted ambient oxygen to excited singlet oxygen which, when in close proximity to acceptor beads, reacted with acceptor beads resulting in signal amplification.
Sequence of Full-length inactive AKT1 (P31749 whole entry): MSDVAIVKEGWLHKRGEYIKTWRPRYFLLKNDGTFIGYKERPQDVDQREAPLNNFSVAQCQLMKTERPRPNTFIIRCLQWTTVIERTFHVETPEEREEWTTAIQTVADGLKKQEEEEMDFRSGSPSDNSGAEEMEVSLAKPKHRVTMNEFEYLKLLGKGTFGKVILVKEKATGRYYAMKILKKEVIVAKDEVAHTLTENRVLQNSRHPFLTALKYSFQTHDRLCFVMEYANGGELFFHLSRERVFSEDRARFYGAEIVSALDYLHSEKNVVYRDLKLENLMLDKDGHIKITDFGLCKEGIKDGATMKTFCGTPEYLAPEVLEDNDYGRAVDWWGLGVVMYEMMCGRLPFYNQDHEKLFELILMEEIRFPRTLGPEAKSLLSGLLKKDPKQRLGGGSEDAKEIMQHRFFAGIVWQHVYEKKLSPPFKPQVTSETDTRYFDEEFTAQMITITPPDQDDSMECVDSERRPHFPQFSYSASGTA
Assay plates were incubated for 90 minutes at room temperature in the dark, and the plates were read on a Perkin Elmer Envision Multilabel plate reader (excitation wavelength: […], emission wavelength: 570 nm).
Take `COc1ccc2nc(-c3cccnc3N)n(-c3ccc(C(C)(C)C)cc3)c2n1` [Example 8]: the IC50 came out at 20600 nM.

Turning to `CC(C)(C)OC(=O)NCc1ccc(-n2c(-c3cccnc3N)nc3cccnc32)cc1` [Example 9], the IC50 was determined as 2470 nM. For the compound `Nc1ncccc1-c1nc2cccnc2n1-c1ccc(CNC(=O)c2cccnc2)cc1` [Example 12], the IC50 was determined as 211 nM. As for `CNS(=O)(=O)Cc1ccc(-n2c(-c3cccnc3N)nc3cccnc32)cc1` [Example 13], the IC50 was found to be 507 nM. In the case of `Nc1ncccc1-c1nc2cccnc2n1-c1ccc(CN2CCOCC2)cc1` [Example 15], the IC50 came out at 1790 nM. Consider `Nc1ncccc1-c1nc2cccnc2n1-c1ccc(C2CCCCC2)cc1` [Example 17], for which the IC50 is 3900 nM. Consider `Nc1ncccc1-c1nc2cccnc2n1-c1ccc(CNC(=O)c2ccccn2)cc1` [Example 19], for which the IC50 was 344 nM. On to `Nc1ncccc1-c1nc2cccnc2n1-c1ccc(CNC(=O)c2nccc3ccccc23)cc1` [Example 20], for which the IC50 is 354 nM.

As to `Nc1ncccc1-c1nc2cccnc2n1-c1ccc(CNCc2ccccc2)cc1` [Example 37], the IC50 amounted to 205 nM. The figure for `Nc1ncccc1-c1nc2cccnc2n1-c1ccc(S(=O)(=O)N2CCCCC2)cc1` [Example 38] is 4310 nM; for `Nc1ncccc1-c1nc2cccnc2n1-c1ccc(CNC(=O)c2ccc(Br)cc2)cc1` [Example 40] it is 89 nM. Consider `Nc1ncccc1-c1nc2cccnc2n1-c1ccc(CNC(=O)CC(c2ccccc2)c2ccccc2)cc1` [Example 42], for which the IC50 came out at 2010 nM. Turning to `CC(=O)Nc1ccccc1C(=O)NCc1ccc(-n2c(-c3cccnc3N)nc3cccnc32)cc1` [Example 43], the IC50 worked out at 1410 nM. As to `Nc1ncccc1-c1nc2cccnc2n1-c1ccc(CNC(=O)c2ccc(OC(F)(F)F)cc2)cc1` [Example 47], the IC50 worked out at 378 nM. For the compound `Nc1ncccc1-c1nc2cccnc2n1-c1ccc(CNC(=O)c2cccs2)cc1` [Example 48], the concentration for half-maximal inhibition (IC50) was 196 nM. As for `Nc1ncccc1-c1nc2cccnc2n1-c1ccc(CNC(=O)c2cccc(F)c2)cc1` [Example 49], the figure is 84 nM; as for `COc1ccccc1C(=O)NCc1ccc(-n2c(-c3cccnc3N)nc3cccnc32)cc1` [Example 50], 2610 nM; as for `CC(C)(C)C(=O)NCc1ccc(-n2c(-c3cccnc3N)nc3cccnc32)cc1` [Example 52, N-{4-[2-(2-aminopyridin-3-yl)-3H-imidazo[4,5-b]pyridin-3-yl]benzyl}-2,2-dimethylpropanamide], 2770 nM. Turning to `Cc1cccc(C(=O)NCc2ccc(-n3c(-c4cccnc4N)nc4cccnc43)cc2)c1` [Example 53], the IC50 worked out at 122 nM. As to `COc1ccc(C(=O)NCc2ccc(-n3c(-c4cccnc4N)nc4cccnc43)cc2)cc1` [Example 54], the IC50 amounted to 711 nM. The figure for `CNc1ccccc1C(=O)NCc1ccc(-n2c(-c3cccnc3N)nc3cccnc32)cc1` [Example 57] is 1520 nM; for `Nc1ncccc1-c1nc2cccnc2n1-c1ccc(CNC(=O)c2ccc(C(F)(F)F)cc2)cc1` [Example 63] it is 790 nM; for `Nc1ncccc1-c1nc2cccnc2n1-c1ccc(CNC(=O)c2ccc3c(c2)CCO3)cc1` [Example 64] it is 1130 nM. As for `Cc1ccccc1C(=O)NCc1ccc(-n2c(-c3cccnc3N)nc3cccnc32)cc1` [Example 70], the IC50 came out at 189 nM.

For `CC(=O)Nc1ccc(C(=O)NCc2ccc(-n3c(-c4cccnc4N)nc4cccnc43)cc2)cc1` [Example 71], the half-inhibitory concentration (IC50) was 605 nM. On to `Nc1ncccc1-c1nc2cccnc2n1-c1ccc(CNC(=O)CC2CCCC2)cc1` [Example 73], for which the IC50 is 2610 nM. The figure for `Nc1ncccc1-c1nc2cccnc2n1-c1ccc(CNC(=O)C2Cc3ccccc3C2)cc1` [Example 75] is 179 nM. For the compound `COc1cccc(C(=O)NCc2ccc(-n3c(-c4cccnc4N)nc4cccnc43)cc2)c1` [Example 77], the IC50 came to 417 nM.

As to `Nc1ncccc1-c1nc2cccnc2n1-c1ccc(CNC(=O)c2ccccc2-n2cccc2)cc1` [Example 78], the IC50 was determined as 307 nM. Turning to `CC1=NN(c2ccc(C(=O)NCc3ccc(-n4c(-c5cccnc5N)nc5cccnc54)cc3)cc2)C(=O)C1` [Example 79], the IC50 was 1110 nM. As for `Nc1ncccc1-c1nc2cccnc2n1-c1ccc(CNC(=O)c2ccc(F)cc2)cc1` [Example 81], the figure is 1370 nM; as for `Nc1ncccc1-c1nc2cccnc2n1-c1ccc(CNC(=O)Nc2ccccc2Cl)cc1` [Example 90], 394 nM; as for `Nc1ncccc1-c1nc2cccnc2n1-c1ccc(CNS(=O)(=O)c2cccnc2)cc1` [Example 94], 142 nM. On to `Nc1ncccc1-c1nc2cccnc2n1-c1ccc(CNS(=O)(=O)c2ccsc2)cc1` [Example 100], for which the IC50 came to 158 nM. The figure for `Nc1ccc(-n2c(-c3cccnc3N)nc3cccnc32)cc1` [Example 106, hydrochloride] is 2530 nM; for `Nc1ncccc1-c1nc2cccnc2n1-c1ccc(CC(=O)N2CCC(n3c(=O)[nH]c4ccccc43)CC2)cc1` [Example 107] it is 1430 nM; for `Cn1ccc(S(=O)(=O)NCc2ccc(-n3c(-c4cccnc4N)nc4cccnc43)cc2)n1` [Example 109, hydrochloride] it is 860 nM. As for `CCOC(=O)Cc1ccc(-n2c(-c3cccnc3N)nc3cccnc32)cc1` [Example 113], the IC50 amounted to 610 nM. Regarding `Cn1c(NC(=O)Cc2ccc(-n3c(-c4cccnc4N)nc4cccnc43)cc2)nc2ccccc21` [Example 114], the IC50 worked out at 579 nM. Regarding `COc1ccc(NC(=O)Cc2ccc(-n3c(-c4cccnc4N)nc4cccnc43)cc2)c(OC)c1` [Example 116], the IC50 came to 595 nM.

In the case of `COc1cccc(NC(=O)Cc2ccc(-n3c(-c4cccnc4N)nc4cccnc43)cc2)c1` [Example 119, hydrochloride], the IC50 was found to be 233 nM.

As for `Cc1ccc2nc(NC(=O)Cc3ccc(-n4c(-c5cccnc5N)nc5cccnc54)cc3)sc2c1` [Example 121, hydrochloride], the IC50 was determined as 160 nM. Consider `Cc1ccc2cc(NC(=O)Cc3ccc(-n4c(-c5cccnc5N)nc5cccnc54)cc3)ccc2n1` [Example 123, hydrochloride], for which the IC50 is 128 nM.

Turning to `Cc1ccc(NC(=O)Cc2ccc(-n3c(-c4cccnc4N)nc4cccnc43)cc2)cc1` [Example 127], the IC50 amounted to 108 nM.

Consider `COc1ccc(NC(=O)Cc2ccc(-n3c(-c4cccnc4N)nc4cccnc43)cc2)cc1F` [Example 128], for which the IC50 came to 216 nM. Consider `Nc1ncccc1-c1nc2cc(F)cnc2n1-c1ccc(CNC(=O)c2ccccc2)cc1` [Example 133, N-(4-(2-(2-aminopyridin-3-yl)-6-fluoro-3H-imidazo[4,5-b]pyridin-3-yl)benzyl)benzamide], for which the IC50 turned out to be 106 nM. As to `Nc1ccccc1-c1cnc2c(c1)nc(-c1cccnc1N)n2-c1ccc(CNC(=O)c2ccccc2)cc1` [Example 134, N-{4-[6-(2-aminophenyl)-2-(2-aminopyridin-3-yl)-3H-imidazo[4,5-b]pyridin-3-yl]benzyl}benzamide], the IC50 was found to be 1600 nM.

As to `CCOc1cccc(-c2cnc3c(c2)nc(-c2cccnc2N)n3-c2ccc(CNC(=O)c3ccccc3)cc2)c1` [Example 135, N-{4-[2-(2-aminopyridin-3-yl)-6-(3-ethoxyphenyl)-3H-imidazo[4,5-b]pyridin-3-yl]benzyl}benzamide], the IC50 came out at 1800 nM. Turning to `Nc1ncccc1-c1nc2cc(-c3ccsc3)cnc2n1-c1ccc(CNC(=O)c2ccccc2)cc1` [Example 137, N-{4-[2-(2-aminopyridin-3-yl)-6-thiophen-3-yl-3H-imidazo[4,5-b]pyridin-3-yl]benzyl}benzamide], the concentration for half-maximal inhibition (IC50) was 50 nM. Consider `CS(=O)(=O)c1ccc(-c2cnc3c(c2)nc(-c2cccnc2N)n3-c2ccc(CNC(=O)c3ccccc3)cc2)cc1` [Example 138, N-(4-{2-(2-aminopyridin-3-yl)-6-[4-(methylsulfonyl)phenyl]-3H-imidazo[4,5-b]pyridin-3-yl}benzyl)benzamide], for which the IC50 is 120 nM. Take `Nc1ncccc1-c1nc2cc(-c3ccc4cc[nH]c4c3)cnc2n1-c1ccc(CNC(=O)c2ccccc2)cc1` [Example 139, N-{4-[2-(2-aminopyridin-3-yl)-6-(1H-indol-6-yl)-3H-imidazo[4,5-b]pyridin-3-yl]benzyl}benzamide]: the IC50 worked out at 360 nM. Regarding `Cc1cccc(-c2cnc3c(c2)nc(-c2cccnc2N)n3-c2ccc(CNC(=O)c3ccccc3)cc2)c1` [Example 140, N-{4-[2-(2-aminopyridin-3-yl)-6-(3-methylphenyl)-3H-imidazo[4,5-b]pyridin-3-yl]benzyl}benzamide], the IC50 stood at 1100 nM.

Consider `Nc1ncccc1-c1nc2cc(-c3cncnc3)cnc2n1-c1ccc(CNC(=O)c2ccccc2)cc1` [Example 142, N-{4-[2-(2-aminopyridin-3-yl)-6-pyrimidin-5-yl-3H-imidazo[4,5-b]pyridin-3-yl]benzyl}benzamide], for which the IC50 came out at 190 nM.

As for `Nc1ncccc1-c1nc2cc(-c3ccc(Br)cc3)cnc2n1-c1ccc(CNC(=O)c2ccccc2)cc1` [Example 143, N-{4-[2-(2-aminopyridin-3-yl)-6-(4-bromophenyl)-3H-imidazo[4,5-b]pyridin-3-yl]benzyl}benzamide], the IC50 came to 170 nM.

With `Nc1ncccc1-c1nc2cc(-c3ccncc3)cnc2n1-c1ccc(CNC(=O)c2ccccc2)cc1` [Example 145, N-{4-[2-(2-aminopyridin-3-yl)-6-pyridin-4-yl-3H-imidazo[4,5-b]pyridin-3-yl]benzyl}benzamide], the IC50 amounted to 160 nM.

A word on the IC50: it is the concentration that gives 50% inhibition.

These data come from patent US8501770B2 (ArQule, Inc., priority 2009, dated 2013).
